According to patent US8778973B2, “Alkene oxindole derivatives” (Hoffmann-La Roche Inc., priority 2009, dated 2014):

These compounds were tested on Recombinant human AMPK proteins (α1β1γ1, α2β1γ1, α1(1-335), α1(1-394) or α2(1-394)) (assay: Scintillation Proximity Assay (SPA) of AMPK activation). Settings: activator concentration for 50% of maximal enzyme activity; 50 nM recombinant AMPK, 2 μM ATP, 30° C., 2 hr.
Format: biochemical
Procedure: Recombinant human AMPK α1β1γ1, α2β1γ1 or AMPK α subunit truncations α1(1-335), α1(1-394) and α2(1-394) were constructed, expressed and purified as described previously (Pang, T., Zhang, Z. S., Gu, M., Qiu, B. Y., Yu, L. F., Cao, P. R., Shao, W., Su, M. B., Li, J. Y., Nan, F. J., and Li, J. (2008)). Rat liver AMPK heterotrimer enzyme was obtained from Upstate (Billerica, Mass., U.S.A.).
Scintillation Proximity Assay
Before the Scintillation Proximity Assay (SPA) assay, 200 nM recombinant AMPK proteins (α1β1γ1, α2β1γ1, α1(1-335), α1(1-394) or α2(1-394)) were fully phosphorylated as described previously (Pang et al., 2008). SPA reactions were performed in 96-well plates at a final volume of 501 containing 20 mM Tris-HCl pH 7.5, 5 mM MgCl2, 1 mM DTT, 2 μM biotin-SAMS, 2 μM ATP, 0.2 μCi/well [γ-^33P]ATP, and various amount of activator. Reactions were initiated by the addition of 50 nM recombinant AMPK proteins to the reaction solutions and incubated at 30° C. for 2 hr. After that, reactions were terminated by the addition of 401 stop solution containing 80 μg streptavidin-coated SPA beads per well, 50 mM EDTA, 0.1% Triton X-100 in PBS, pH 7.5 and incubated for 1 hr. Finally, a 160 ul suspension solution containing 2.4 M CsCl, 50 mM EDTA, and 0.1% Triton X-100 in PBS (pH 7.5) was added to the reaction solution to suspend SPA beads completely. SPA signals were determined with a Wallac MicroBeta plate counter (PerkinElmer) 30 min later for calculation of the amount of product formed. The amount of products formed in 2 hr was plotted against activator concentrations to determine the effective concentration of the activator (EC50) required for 50% of maximal enzyme activity.
Compounds as described above have EC50 values between 0.5 uM and 50 uM, preferred compounds have EC50 values between 0.5 uM and 10 uM, particularly preferred compounds have EC50 values between 0.5 uM and 1 uM.

Row | EC50 [nM] | SMILES
1 | 4870 | COc1ccc2c(c1)/C(=C(/c1ccccc1)c1ccc(Cl)cc1)C(=O)N2Cc1cccc(C(=O)O)c1 [Example 58, 3-{3-[1-(4-Chloro-phenyl)-1-phenyl-meth-(E)-ylidene]-5-methoxy-2-oxo-2,3-dihydro-indol-1-ylmethyl}-benzoic acid]
2 | 2200 | O=C(O)c1cccc(CN2C(=O)/C(=C(\c3ccc(Cl)cc3)c3ccc(C(F)(F)F)cc3)c3ccccc32)c1 [Example 69, 3-{3-[1-(4-Chloro-phenyl)-1-(4-trifluoromethyl-phenyl)-meth-(Z)-ylidene]-2-oxo-2,3-dihydro-indol-1-ylmethyl}-benzoic acid]
3 | 770 | COC(=O)c1cccc(CN2C(=O)/C(=C(\c3ccccc3)c3ccc(S(N)(=O)=O)cc3)c3ccccc32)c1 [Example 31, 3-{2-Oxo-3-[1-phenyl-1-(4-sulfamoyl-phenyl)-meth-(E)-ylidene]-2,3-dihydro-indol-1-ylmethyl}-benzoic acid methyl ester]
4 | 2580 | COC(=O)c1cccc(CN2C(=O)/C(=C(/CCC(C)C)c3ccccc3)c3ccccc32)c1 [Example 77, 3-[3-(4-Methyl-1-phenyl-pent-(Z)-ylidene)-2-oxo-2,3-dihydro-indol-1-ylmethyl]-benzoic acid methyl ester]
5 | 4130 | COC(=O)c1cccc(CN2C(=O)/C(=C(\c3ccccc3)c3ccc(Cl)cc3)c3cc(OC)ccc32)c1 [Example 22, 3-{3-[1-(4-Chloro-phenyl)-1-phenyl-meth-(E)-ylidene]-5-methoxy-2-oxo-2,3-dihydro-indol-1-ylmethyl}-benzoic acid methyl ester]
6 | 1840 | O=C(O)c1cccc(CN2C(=O)/C(=C(\c3ccccc3)c3ccccc3Cl)c3ccccc32)c1 [Example 75, 3-{3-[1-(2-Chloro-phenyl)-1-phenyl-meth-(E)-ylidene]-2-oxo-2,3-dihydro-indol-1-ylmethyl}-benzoic acid]
7 | 10600 | COC(=O)c1cccc(CN2C(=O)/C(=C(/c3ccc(Cl)cc3)C3CCCCC3)c3ccccc32)c1 [Example 87, 3-{3-[1-(4-Chloro-phenyl)-1-cyclohexyl-meth-(E)-ylidene]-2-oxo-2,3-dihydro-indol-1-ylmethyl}-benzoic acid methyl ester]
8 | 2340 | COC(=O)c1cccc(CN2C(=O)/C(=C(\c3ccccc3)c3ccccc3Cl)c3ccccc32)c1 [Example 17, 3-{3-[1-(2-Chloro-phenyl)-1-phenyl-meth-(E)-ylidene]-2-oxo-2,3-dihydro-indol-1-ylmethyl}-benzoic acid methyl ester]
9 | 4240 | O=C(O)c1ccccc1CN1C(=O)/C(=C(\c2ccccc2)c2ccc(Cl)cc2)c2ccccc21 [Example 56, 2-{3-[1-(4-Chloro-phenyl)-1-phenyl-meth-(E)-ylidene]-2-oxo-2,3-dihydro-indol-1-ylmethyl}-benzoic acid]
10 | 1270 | NS(=O)(=O)c1ccc(/C(=C2/C(=O)N(Cc3cccc(C(=O)O)c3)c3ccccc32)c2ccccc2)cc1 [Example 67, 3-{2-Oxo-3-[1-phenyl-1-(4-sulfamoyl-phenyl)-meth-(E)-ylidene]-2,3-dihydro-indol-1-ylmethyl}-benzoic acid]
11 | 2950 | COC(=O)c1cccc(CN2C(=O)/C(=C(\c3ccc(Cl)cc3)c3ccc(C(F)(F)F)cc3)c3ccccc32)c1 [Example 35, 3-{3-[1-(4-Chloro-phenyl)-1-(4-trifluoromethyl-phenyl)-meth-(Z)-ylidene]-2-oxo-2,3-dihydro-indol-1-ylmethyl}-benzoic acid methyl ester]
12 | 1540 | COC(=O)c1cccc(CN2C(=O)C(=C(c3ccccc3)c3ccccc3)c3ccccc32)c1 [Example 7, 3-(3-Benzhydrylidene-2-oxo-2,3-dihydro-indol-1-ylmethyl)-benzoic acid methyl ester]
13 | 4740 | CC(C)CC/C(=C1/C(=O)N(Cc2cccc(C(=O)O)c2)c2ccccc21)c1ccccc1 [Example 81, 3-[3-(4-Methyl-1-phenyl-pent-(Z)-ylidene)-2-oxo-2,3-dihydro-indol-1-ylmethyl]-benzoic acid]
